Assay results as given in ChEMBL document CHEMBL1124888 (J Med Chem, 1990).

Tests used:
Rattus norvegicus [1] = experiment: Hyperactivity by regression analysis, through intraperitoneal route of administration; type: functional; settings: ip
Rattus norvegicus [2] = experiment: Stereotypies was scored by regression analysis, through intraperitoneal route of administration; type: functional; settings: ip
D(2) dopamine receptor = D(2) dopamine receptor (Rattus norvegicus, UniProt P61169); experiment: The affinity for the Dopamine receptor D2 was assessed by the inhibition of [3H]-spiperone binding in rat striatal membranes in vitro.; type: cell membranes, Membrane
Sequence of D(2) dopamine receptor (P61169 whole entry): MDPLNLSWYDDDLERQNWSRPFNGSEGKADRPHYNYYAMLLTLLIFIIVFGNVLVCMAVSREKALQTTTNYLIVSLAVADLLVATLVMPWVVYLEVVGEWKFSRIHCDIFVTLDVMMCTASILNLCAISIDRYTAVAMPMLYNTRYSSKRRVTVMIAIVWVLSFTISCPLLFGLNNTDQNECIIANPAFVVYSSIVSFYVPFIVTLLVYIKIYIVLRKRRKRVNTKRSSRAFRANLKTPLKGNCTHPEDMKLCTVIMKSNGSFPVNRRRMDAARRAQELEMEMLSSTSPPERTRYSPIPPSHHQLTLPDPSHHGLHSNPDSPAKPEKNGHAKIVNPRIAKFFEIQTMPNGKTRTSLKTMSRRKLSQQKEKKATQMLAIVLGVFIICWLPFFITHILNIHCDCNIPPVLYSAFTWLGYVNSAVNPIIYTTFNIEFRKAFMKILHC

Row | IC50 (D(2) dopamine receptor) [nM] | SMILES | ED50 (Rattus norvegicus [1]) [µmol/kg] | ED50 (Rattus norvegicus [2]) [µmol/kg]
1 | 44 | CCN1CCCC1CNC(=O)c1cc(Br)c(OC)cc1OC (stereo unspecified) | 3.2 | 10.7
2 | 52 | CCN1CCCC1CNC(=O)c1cccc(OC)c1OC (stereo unspecified) | ~10 | ~10
3 | 46 | CCN1CCCC1CNC(=O)c1cc(Br)ccc1OC (stereo unspecified) | 3 | 6.7
4 | 1.2 | CCN1CCC[C@H]1CNC(=O)c1cc(Br)cc(OC)c1OC | 0.002 | 0.14
5 | 8210 | CCN1CCCC1CNC(=O)c1cc(Br)cc(OC)c1O (stereo unspecified) | – | –
6 | 145 | CCN1CCC[C@@H]1CNC(=O)c1cc(Br)cc(OC)c1OC | > 20 | > 20

Further lines, the compound ahead of its results:

Row | SMILES | IC50 (D(2) dopamine receptor) [nM] | ED50 (Rattus norvegicus [1]) [µmol/kg] | ED50 (Rattus norvegicus [2]) [µmol/kg]
7 | CCN1CCC[C@H]1CNC(=O)c1c(O)c(Cl)cc(Cl)c1OC [RACLOPRIDE] | – | 0.13 | 1.8
8 | CCN1CCC[C@H]1CNC(=O)c1cc(Br)cc2c1OCC2 | – | 2 | 4.7
9 | CCN1CCCC1CNC(=O)c1cc(Br)cc(O)c1OC (stereo unspecified) | 10 | 1.2 | 2.1
10 | CCN1CCC[C@H]1CNC(=O)c1c(O)c(Br)cc(OC)c1OC | – | 0.009 | 0.049
11 | CCN1CCC[C@H]1CNC(=O)c1c(OC)ccc(Br)c1O | – | 0.054 | 0.32
12 | COc1cccc(C(=O)NC2CC3CCC(C2)N3Cc2ccccc2)c1OC (stereo unspecified) | 1.7 | 0.016 | 0.043
13 | CCN1CCC[C@H]1CNC(=O)c1cc(Br)cc2c1OCCO2 | 46 | 3.8 | 12.8
14 | COc1cc(Br)cc(C(=O)NC2CCN(Cc3ccccc3)CC2)c1OC | 5 | 0.28 | 0.24
